The values that follow come from US20060127980A1, “Human excitatory amino acid transporter-2 gene promoter and uses thereof” (priority 2003, published 2006).

A value given as a limit tells only on which side of the number the result lay.

Holding throughout (format): cell-based, human
Assay [1] has as its system hEAAT2 promoter. The assay is described as follows: flhEAAT2Prom-luc and deletion mutant luciferase reporter assay in PHFA treated with modulators. To be noted: deletion mutant; for stimulation of promoter activity after deletion of bp −2426 to bp −703 / upregulation of promoter activity after deletion of bp −703 to bp −326: four day treatment. The protocol:
(§1) FIG. 4A-D. Effect of modulators of hEAAT2 activity on hEAAT2 expression and hEAAT2 promoter activity in PHFA. A. A Northern analysis of hEAAT2 and GAPDH mRNA expression following treatment with EGF (30 ng/ml), TGF-α (30 ng/ml), dbcAMP (200 μM, bromo-cAMP (100 μM) or TNF-α (200 U/ml) for 7 days. B. Nuclear run-on assays determining the relative rates of hEAAT2 and GAPDH transcription as a function of 7-day treatment with the same concentrations of the indicated agents. C. A time course of mRNA expression of hEAAT2 and GAPDH following treatment with EGF, bromo-cAMP or TNF-α (same concentrations as in A.). D. Fold luciferase activity in PHFA transfected with flhEAAT2Prom-luc or various deletion mutants of hEAAT2 and non-transfected controls treated with the indicated compounds for four days.
Construction of hEAAT2 Promoter Deletion Mutants and Performance of the Luciferase Assays. 5′-deletion mutants of the hEAAT2 promoter were made with exonuclease III digestion using the Erase-A-Base System (Promega) as described for the PEG-3 promoter (Su et al., 2000, Oncogene 19(30):3411-3421). The flhEAAT2Prom-luc and flhEAAT2Prom-luc deletion mutants were cloned into the pGL3-basic luciferase reporter vector (Promega) and luciferase reporter assays were performed as described (Su et al., 2000, Oncogene 19(30):3411-3421; Su et al., 2001, Nucleic Acids Res 29(8):1661-1671), except that instead of using lipofectamine, which was toxic to PHFA, the calcium phosphate precipitation transfection technique was used (Babiss et al., 1986, Proc Natl Acad Sci USA 83(7):2167-2171).
Preferential Expression of the hEAAT2 Promoter in PHFA and Deletion Analysis of the hEAAT2 Promoter. hEAAT2 is expressed in brain-derived cells, mainly astrocytes (Tanaka et al., 1997, Science 276(5319):1699-1702; Anderson et al., 2000, Glia 32(1):1-14). Experiments were performed to confirm hEAAT2 promoter activity in normal human astrocytes and to determine expression levels in other cell types (FIG. 2A). Primary early passage and established human normal and tumor cell lines were co-transfected with a putative full-length ˜2.5 kb hEAAT2 promoter, a SacII fragment extending from bp −2426 to bp +44, was cloned into the pGL3-basic vector (Promega), where it drove expression of the firefly luciferase (luc) gene, and a pSV-β-galactosidase expression plasmid. Relative fold expression of a full length hEAAT2 promoter-luciferase (flhEAAT2Prom-luc) construct was determined as described (Su et al., 2000, Oncogene 19(30):3411-3421; Su et al., 2001, Nucleic Acids Res 29(8):1661-1671), and activity versus transfection with a pSV-β-galactosidase plasmid was calculated as described (Su et al., 2000, Oncogene 19(30):3411-3421; Su et al., 2001, Nucleic Acids Res 29(8):1661-1671) to equalize for differences in transfection efficiency.
To examine further the relationship between hEAAT2 and treatment with the various glutamate transporter modulators, transient transfection assays were performed in PHFA using the flhEAAT2Prom-luc constructs and various deletions thereof (FIG. 4D). […] In the case of dbcAMP, promoter activity was enhanced by ˜3-fold.

In assay [2] the test system is hEAAT2 mRNA. Briefly: Northern blot of hEAAT2 mRNA in PHFA treated with modulators. The following applies: for hEAAT2 mRNA expression: 7-day treatment, EGF 30 ng/ml, TGF-α 30 ng/ml, dbcAMP 200 μM, bromo-cAMP 100 μM, TNF-α 200 U/ml. The protocol:
as §1
(§2) Northern and Western Blotting Assays. Total cellular RNA was isolated by the guanidinium/phenol extraction method and Northern blotting was performed as described (Huang et al., 2001, Oncogene 20(48):7051-7063; Su et al., 2000, Oncogene 19(30):3411-3421; Su et al., 2001, Nucleic Acids Res 29(8):1661-1671). Western blotting assays were performed as described (Su et al., 1998, Proc Natl Acad Sci USA 95(24):14400-14405; Su et al., 2002, Oncogene 21(22):3592-602).
Positive and Negative Regulation of hEAAT2 Transcription, Promoter Activity and mRNA Levels in PHFA. Several enhancers of GLT-1 expression in rat astrocytes have been identified, including epidermal growth factor (EGF), transforming growth factor-α (TGF-α) and dibutyryl cyclic AMP (dbcAMP) (Swanson et al., 1997, J Neurosci 17(3):932-940; Zelenaia et al., 2000, Mol Pharmacol 57(4):667-678). Based on these considerations, experiments were performed to determine if these agents similarly modify human hEAAT2 expression in PHFA. Consistent with previous observations in rat astrocytes, 7-day treatment with EGF, TGF-α, and two analogs of cAMP, dbcAMP and bromo-cAMP, stimulated hEAAT2 mRNA expression in PHFA, whereas TNF-α decreased expression (FIG. 4B). […] In contrast, TNF-α decreased expression by 48 h (FIG. 4C).

Assay [3] concerns hEAAT2 transcription. The assay is described as follows: Nuclear run-on assay of hEAAT2 transcription in PHFA. The following applies: 7-day treatment. The protocol:
as §1
Primer Extension Analysis and Nuclear Run-on Assays. Primer extension assays were performed as described (Su et al., 2000, Oncogene 19(30):3411-3421). A primer with the sequence 5′-[…]-3′ (SEQ ID NO:6) complementary to the 5′ UTR of the hEAAT2 cDNA was used for this assay. Nuclear run-on assays were performed as described (Su et al., 1997, Proc Natl Acad Sci USA 94(17):9125-9130).
To examine whether stimulation of hEAAT2 expression involves transcriptional changes, nuclear run-on assays were performed.

For assay [4], the system named is hEAAT2 protein. Briefly: Western blot of EAAT2 protein in PHFA. The protocol:
(§3) FIG. 5A-E. Effect of pharmacological inhibitors on hEAAT2 promoter activity, and mRNA and protein expression in PHFA following various treatment protocols. A. hEAAT2 promoter activity in PHFA, either untreated (−) or treated with EGF (30 ng/ml), in the absence (−) or presence (+) of KT5720 (5 μM), AG1478 (1 μM), PDTC (100 μM), wortmannin (WRT) (100 nM) or PD98049 (PD) (50 μM). B. hEAAT2 promoter activity in PHFA, either untreated (−) or treated with bromo-cAMP (250 μM) in the absence (−) or presence (+) of KT5720 (5 μM), AG1478 (1 μM), PDTC (100 μM), wortmannin (WRT) (100 nM) or PD98049 (PD) (50 μM). C. hEAAT2 promoter activity in PHFA, either untreated (−) or treated with TNF-α (200 U/ml), in the absence (−) or presence (+) of KT5720 (5 μM), AG1478 (1 μM), PDTC (100 μM), wortmannin (WRT) (100 nM) or PD98049 (PD) (50 μM). D. The effect of the various treatment protocols on hEAAT2 and GAPDH mRNA levels. Upper panel presents relative hEAAT2 RNA expression versus GAPDH expression relative to control untreated or treated samples based on scanning of autoradiograms. Lower panel, actual Northern blots. E. The effect of the various treatment protocols on EAAT2 and ACTIN protein levels. Upper panel presents relative EAAT2 protein expression versus ACTIN expression relative to control untreated or treated samples based on scanning of autoradiograms. Individual experiments were performed 3 times using triplicate samples and S.D. from the mean is presented.
as §2
On the technique in general: A western blot detects proteins with antibodies after separation by electrophoresis.

Assay [5] has as its system hEAAT2 promoter activity, mRNA levels and protein levels. Briefly: Pathway-specific inhibitors on modulated hEAAT2 promoter activity, mRNA and protein in PHFA. The following applies: PDTC 100 μM, PD 50 μM; for effect on EGF (or TGF-α) enhancement of hEAAT2 promoter activity, mRNA and protein levels: EGF 30 ng/ml; for effect on EGF (or TGF-α) enhancement of hEAAT2 promoter activity, mRNA and protein levels / effect on bromo-cAMP (or dbcAMP) enhancement of hEAAT2 expression: KT5720 5 μM, AG1478 1 μM, wortmannin 100 nM; for effect on bromo-cAMP (or dbcAMP) enhancement of hEAAT2 expression: bromo-cAMP 250 μM. The protocol:
as §3
Biochemical Basis for Positive and Negative Regulation of hEAAT2 Expression in PHFA. To define the biochemical pathways relevant to the regulation of hEAAT2 expression in PHFA resulting from the different treatment protocols, a pharmacological approach was employed. This involved the use of well-characterized pathway-specific inhibitors and determining effects on hEAAT2 promoter activity, mRNA levels and protein levels (FIG. 5). The inhibitors included, KT5720 (a protein kinase A. (PKA) inhibitor), AG1478 (a tyrosine kinase inhibitor), worttnannin (a phosphatidylinositol 3-kinase (PI-3K) inhibitor), pyrrolidinedithiocarbamate (PDTC, an inhibitor of NF-κB activation) and PD98059 (a mitogen-activated kinase (MEK1/MEK2) inhibitor) (Zelenaia et al., 2000, Mol Pharmacol 57(4):667-678).

With “TGF-α: transforming growth factor-α, from Invitrogen”, in assay [1], the “promoter activity after further deletion of bp −326 to bp −120” value is on record as “did not result in any additional reduction”, the “stimulation of promoter activity after deletion of bp −2426 to bp −703” value (“stimulation of promoter activity” for short) was “did not significantly decrease” and the “upregulation of promoter activity after deletion of bp −703 to bp −326” value (“upregulation of promoter activity” for short) is reported as “a level approximating that found in uninduced PHFA”. Also, the “hEAAT2 mRNA expression” value in assay [2] was “stimulated”. The “relative rate of transcription of hEAAT2 RNA compared with GAPDH” value (“relative rate” below) in assay [3] is recorded as “elevated”. For the same compound, the hEAAT2 protein levels entry in assay [4] is on record as “upregulated”.
Regarding `COc1cccc(-c2cc(=O)c3ccccc3o2)c1N` [PD98059], in assay [5], the “effect on EGF (or TGF-α) enhancement of hEAAT2 promoter activity, mRNA and protein levels” value is listed as “significantly inhibited but not extinguished”; the “effect on bromo-cAMP (or dbcAMP) enhancement of hEAAT2 expression” value was “partially inhibited”. Besides, in assay [5] (cotreatment with TNF-α 200 U/ml), the “effect on TNF-α-decreased hEAAT2 promoter, mRNA and protein levels” value is listed as “partial restoration of normal levels of hEAAT2 protein”.
In the case of “EGF: epidermal growth factor, from Invitrogen”, in assay [1], the “promoter activity after further deletion of bp −326 to bp −120” value was “did not result in any additional reduction”, the “stimulation of promoter activity” value is “did not significantly decrease” and the “upregulation of promoter activity” value was “a level approximating that found in uninduced PHFA”. In assay [2], the “hEAAT2 mRNA expression” value was “stimulated”. In assay [2] (time course), the “time of highest (maximum) hEAAT2 mRNA upregulation” value worked out at 48 h. Also, the “relative rate” value in assay [3] was “elevated”. Also, the hEAAT2 protein levels entry in assay [4] was “upregulated”.
As to `Nc1ncnc2c1nc(Br)n2[C@@H]1O[C@@H]2COP(=O)(O)O[C@H]2[C@H]1O` [bromo-cAMP], in assay [1], the “stimulation of promoter activity” value is “did not significantly decrease” and the “upregulation of promoter activity” value is listed as “most relevant”. In addition, in assay [2], the “hEAAT2 mRNA expression” value was “stimulated”. Moreover, the “time of highest (maximum) hEAAT2 mRNA upregulation” value in assay [2] (time course) was 48 h. Also, in assay [2] (time course, bromo-cAMP enhanced, TNF-α decreased), the “time by which hEAAT2 mRNA expression was changed” value was ≤ 24 h. Besides, the “relative rate” value in assay [3] is recorded as “elevated”. Besides, the hEAAT2 protein levels entry in assay [4] is reported as “upregulated”.
Turning to `CCCCCCOC(=O)[C@]1(O)C[C@@H]2O[C@@]1(C)n1c3ccccc3c3c4c(c5c6ccccc6n2c5c31)C(=O)NC4` [KT5720], in assay [5], the “effect on EGF (or TGF-α) enhancement of hEAAT2 promoter activity, mRNA and protein levels” value is listed as “unaffected”; the “effect on bromo-cAMP (or dbcAMP) enhancement of hEAAT2 expression” value is “eliminated”.
Taken in the same sequence, the figures for `COc1cc2ncnc(Nc3cccc(Cl)c3)c2cc1OC` [AG1478] were “abolished” and “unaffected”.
